Where a name gives a salt, the structure may show the parent alone. Read-outs that look alike come from different tables or passages of the source.
Columns and labels:
[1] = 5% a.e. DMA Dicamba solution
[2] = 20° C.; 'is believed to have'; cited from earlier work
[3] = Aqueous solubility of dicamba acid and dicamba salts; conditions: for aqueous solubility wt % a.i. @20° C.: dicamba salts; for solubility 20° C. a.e. / solubility 20° C. a.i.: equilibrated 5 to 7 days at 20° C.; for solubility 20° C. a.e.: 0.45 micron filter, HPLC
Excerpt: The solution was then passed through a 0.45 micron filter and assayed by HPLC for soluble dicamba.

[4] = format: physicochemical; conditions: 38.5 wt % a.e. solutions (Table 4i)
Description: In a further set of experiments, measurements of dicamba concentration in the gas phase (air) above 38.5 wt % a.e. solutions of various dicamba salts was measured. 5 mL of each sample of dicamba was placed into a 50 mL plastic centrifuge tube with four holes approximately ⅛ in diameter drilled into the tube at the 10 mL line. A 22 mm×30 mm PUF (SKC ct. #226-124) was placed into a glass tube of app. 20 mm diameter with parafilm wrapped around the outside to obtain a snug fit into the top of the centrifuge tube. A hose was connected to the other end of the glass tube leading to a vacuum line. The air flow was regulated to app. 2 L/min using a flow controller (about 0.4 L air/min-mL sample). Air was pulled through the tube at […] for approximately 1 day. Note that the air conditions of flow rate, temperature, pressure and composition (e.g., relative humidity) are not narrowly critical as long as the various samples are analyzed under similar conditions. For instance, air at from about 5° C. to about 40° C., from about 0.5 to about 1.5 bar pressure, from about 0% to about 95% relative humidity, and at a flow rate of from about 0.1 to 10 L/min-mL sample could be suitably used for volatility analysis. The PUF was removed from the glass tube, extracted with 20 mL methanol and the resulting solution analyzed for dicamba concentration by LC-MS. The results are shown in Table 4i below where “wt % a.e.” refers to the dicamba concentration, “μg/mL” refers to the dicamba concentration in the distillate, “μg dicamba” refers to the total dicamba extracted from the PUF by 20 mL methanol, and “ng/L air” and “moles/L air” refer to the dicamba concentration in the gas phase above the solution.

[5] = test system: eyes of rabbit
Description: Eye irritation measurement can be done according to the methods provided in U.S. Environmental Protection Agency Office of Prevention, Pesticides and Toxic Substances, Health Effects Test Guidelines (for example, OPPTS 870.2400 Acute Eye Irritation, August 1998).
The eye irritation potential of an aqueous formulation of the present invention was evaluated. […] Eye irritation testing was done according to the methods provided in U.S. Environmental Protection Agency Office of Prevention, Pesticides and Toxic Substances, Health Effects Test Guidelines: OPPTS 870.2400 Acute Eye Irritation. The eyes of 3 rabbit animals were treated with the formulation and were scored for effects on the cornea, iris, and conjunctivae (redness, swelling and discharge).

[6] = Distillation volatility: dicamba in distillate by HPLC/MS; format: physicochemical; conditions: for ppm Dicamba in distillate: Table 4h summary, 5% a.e. salt solution
Description: The pH was measured on a standard Orion Model 320 pH meter of each neat solution.
Simple distillation using a short path still was used to collect the water distillate containing the dicamba in the vapor phase of the salt solutions. A 50 mL distillation flask was used. The distillation receiver was a “cow” type with four 2 mL graduated sections. The solutions were heated at the 30% setting of the GlassCol heating unit and the boiling point of each distillation was noted. The first 2 ml of distillate was collected, and the receiver rotated to avoid collection of any further distillate in that section as the distillation flask cooled. The 2 mL sample was quantitatively transferred by pipette to HPLC vials for later analysis. Between each distillation the distillation apparatus was washed with 10 volumes of tap water, 10 volumes of distilled water, rinsed with acetone, and dried in a 60° C. oven. Each distillation was run in triplicate.
The distillate was collected and analyzed for dicamba concentration using HPLC/Mass Spectroscopy (MS). The HPLC column was an Agilent Zorbax Eclipse XDB-C8, 4.6×150 mm, 5u, PN 993967-90. Mobile phase A was 0.1% formic acid in D.I. water. Mobile phase B was 0.1% formic acid in acetonitrile. A flow rate of 1.2 mL/min was used and an injection volume of 5, 10, 15 or 25 ul was used depending on the dicamba level in the sample. The following gradient was used: […]
The MS parameters were as follows: Type SIR; ES-ion mode; 0.05 second inter channel delay; 0.05 second interscan time; 0.5 span (Da); 10 minutes elapsed time; and 6-6000 ppb calibration range. […] Channel 2 mass was 177 (Da); Dwell was 0.25(s); Cone(V)=tune and; 0.05(s) delay.

[7] = Tank mix compatibility of dicamba salts with potassium glyphosate; format: physicochemical; conditions: for g to crystals: grams dicamba a.e. (35.8% a.e. salt solution) added to […] Roundup POWERMAX solution to induce crystallization or precipitation
Excerpt: The weight of the dicamba solution that caused precipitation was noted. The results are reported in Table 12a below where “salt” refers to the dicamba salt and “g to crystals” refers to the total amount of grams of dicamba a.e. that were required to induce crystallization or precipitation of crystals.

Structure (SMILES): CNC.COc1c(Cl)ccc(Cl)c1C(=O)O [Dicamba DMA salt]
- pH Solution After Distillation ([1]; starting solution pH 3.60): 3.58
- ppm DMA in Distillate ([1]; starting solution pH 3.60): Undetectable
- pH Solution After Distillation ([1]; starting solution pH 8.20): 7.04
- ppm DMA in Distillate ([1]; starting solution pH 8.20): 400 ppm
- pH Solution After Distillation ([1]; starting solution pH 10.10): 6.4
- ppm DMA in Distillate ([1]; starting solution pH 10.10): 5000 ppm
- amine in the distillate by HPLC analysis ([1]; acidic pH (3.6)): no detectable amine
- solubility g a.e./L [2]: ~600 g a.e./L
- solubility wt % a.e. [2]: about 45 wt % a.e.

Structure (SMILES): COc1c(Cl)ccc(Cl)c1C(=O)O.NCCO [Dicamba MEA salt]
- aqueous solubility wt % a.e. @20° C. ([3]; Table 10b, second experiment, dicamba acid and salts, 20° C.): 66.1 wt % a.e.
- aqueous solubility wt % a.i. @20° C. ([3]; Table 10b, second experiment, 20° C.): 84.4 wt % a.i.
- crystal formation from concentrated salt solution ([3]; solubility experiment, Example 10): did not form crystals
- dicamba concentration in the gas phase above the solution, comparison [4]: lower than the acid or the sodium, potassium and DMA salts
- gas concentration, times less than the commercial product BANVEL [4]: ~20 times
- time after treatment at which all eyes were free of positive scores ([5]; 61 wt % a.e., pH 8.5): 7 days
- time by which all eyes were free of all irritation ([5]; 61 wt % a.e., pH 8.5): ≤ 10 days
- eye irritation rating in words ([5]; Example 16: 61 wt % a.e. aqueous MEA dicamba, pH 8.5, 3 rabbits, b51: concentrate formulations at pH about 8): moderately irritating
- ocular findings in all treated eyes ([5]; within 24 hours after treatment, 61 wt % a.e., pH 8.5): corneal opacity, iritis and conjunctivitis

Structure (SMILES): COc1c(Cl)ccc(Cl)c1C(=O)O [Dicamba sodium salt, reference compound]
- aqueous solubility Approximate g a.e./L @20° C. ([3]; 20° C., listed as sodium salt): 364 g a.e./L
- aqueous solubility wt % a.e. @20° C. ([3]; 20° C., listed as sodium salt): 36.3 wt % a.e.
- crystal formation on drying on a glass surface ([3]; Example 10): formed crystals very readily
- Comments (crystal formation) ([3]; Table 10a, dicamba salt solutions, listed as Na): Crystals form easily
- solubility 0° C. a.e. ([3]; Table 10a, dicamba salt, equilibrated 5 to 7 days at 0° C., acid equivalent, listed as Na): 33 wt %
- solubility 0° C. a.i. ([3]; Table 10a, dicamba salt, equilibrated 5 to 7 days at 0° C., active ingredient, listed as Na): 36.3 wt %
- solubility 20° C. a.e. ([3]; Table 10a, dicamba salt, acid equivalent, listed as Na): 36.3 wt %
- solubility 20° C. a.i. ([3]; Table 10a, dicamba salt, active ingredient, listed as Na): 40.3 wt %
- aqueous solubility wt % a.e. @20° C. ([3]; Table 10b, second experiment, dicamba acid and salts, 20° C., listed as sodium salt): 36.3 wt % a.e.
- aqueous solubility wt % a.i. @20° C. ([3]; Table 10b, second experiment, 20° C., listed as sodium salt): 40.3 wt % a.i.
- Mean Dicamba in Distillate ([6]; 1% a.e. dicamba, solution pH 3.31): 3.42 ppm
- Mean Dicamba in Distillate ([6]; 1% a.e. dicamba, solution pH 4.25): 0.70 ppm
- Mean Dicamba in Distillate ([6]; 1% a.e. dicamba, solution pH 6.19): 0.13 ppm
- Mean Dicamba in Distillate ([6]; 1% a.e. dicamba, solution pH 9.82): 0.09 ppm
- Mean Dicamba in Distillate ([6]; 1% a.e. dicamba, solution pH 11.15): 0.06 ppm
- Mean Dicamba in Distillate ([6]; 2% a.e. dicamba, solution pH 3.33): 5.74 ppm
- Mean Dicamba in Distillate ([6]; 2% a.e. dicamba, solution pH 4.29): 1.39 ppm
- Mean Dicamba in Distillate ([6]; 2% a.e. dicamba, solution pH 6.28): 0.32 ppm
- Mean Dicamba in Distillate ([6]; 2% a.e. dicamba, solution pH 9.93): 0.16 ppm
- Mean Dicamba in Distillate ([6]; 2% a.e. dicamba, solution pH 11.50): 0.15 ppm
- Mean Dicamba in Distillate ([6]; 5% a.e. dicamba, solution pH 3.36): 11.57 ppm
- Mean Dicamba in Distillate ([6]; 5% a.e. dicamba, solution pH 4.34): 2.36 ppm
- Mean Dicamba in Distillate ([6]; 5% a.e. dicamba, solution pH 6.32): 0.77 ppm
- Mean Dicamba in Distillate ([6]; 5% a.e. dicamba, solution pH 10.36): 0.45 ppm
- Mean Dicamba in Distillate ([6]; 5% a.e. dicamba, solution pH 12.15): 0.22 ppm
- ppm Dicamba in distillate ([6]; pH 6.32): 0.8 ppm
- crystallization in the presence of potassium glyphosate ([7]; 35.8% a.e. dicamba salt solution added to […] Roundup POWERMAX solution): induced crystallization
- g to crystals [7]: 13.6 g

Structure (SMILES): NCCO [MEA]
- solubility 20° C. a.e. ([3]; Table 10a, dicamba salt, acid equivalent): >71.9 wt %
- solubility 20° C. a.i. ([3]; Table 10a, dicamba salt, active ingredient): >91.8 wt %
- ppm Dicamba in distillate ([6]; pH 6.87): 0.5 ppm
- ppm Dicamba in distillate ([6]; pH 8.03): 0.3 ppm
- Comment ([7]; dicamba salt solution added to […] Roundup POWERMAX solution): Clear solution, no precipitate
- g to crystals [7]: >34.2 g

From patent publication US11503826B2, “Low volatility auxin herbicide formulations” (priority 2009, dated 2022)
